Where “and” joins values, the source holds several entries; their conditions need not be identical. Equal entries are not always repeated.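 Test compounds were applied to cells in 96-well plates for 48 hours at 5 doses. At the GI50, growth is halved. TGI marks complete inhibition of growth.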 Where a SMILES comes first, the peptide text is derived from it. Bridges are numbered along the chain shown (N, C = ends). [ ]: non-standard residue; d: D form. ξ: configuration not given here. ξThr(3R) = C[C@@H](O)C(N)C(=O)O; S5 = C=CCCC[C@](C)(N)C(=O)O
Legend:
Assay in all cases: growth of human tumour cells (NCI), 48 h
NCI-H23 lung = system: NCI-H23 lung
NCI-H460 lung = system: NCI-H460 lung
T-47D breast = system: T-47D breast
HL-60(TB) leukemia = system: HL-60(TB) leukemia
HT29 colon = system: HT29 colon
HCT-116 colon = system: HCT-116 colon
LOX IMVI melanoma = system: LOX IMVI melanoma
MALME-3M melanoma = system: MALME-3M melanoma
A549 NSCLC = system: A549 NSCLC
SK-MEL-5 melanoma = system: SK-MEL-5 melanoma

SMILES	GI50 (NCI-H23 lung)	TGI (NCI-H23 lung)	TGI (NCI-H460 lung)	GI50 (T-47D breast)	TGI (T-47D breast)	TGI (HL-60(TB) leukemia)	TGI (HT29 colon)	TGI (HCT-116 colon)	GI50 (LOX IMVI melanoma)	TGI (LOX IMVI melanoma)	TGI (MALME-3M melanoma)	TGI (A549 NSCLC)	GI50 (SK-MEL-5 melanoma)	TGI (SK-MEL-5 melanoma)	GI50 (NCI-H460 lung)	GI50 (HL-60(TB) leukemia)	GI50 (HT29 colon)	GI50 (HCT-116 colon)	GI50 (MALME-3M melanoma)	GI50 (A549 NSCLC)
COc1ccc2nc3cc([N+](=O)[O-])ccc3c(NNc3ccccc3)c2c1	12.1 µM	28.1 µM and > 90.5 µM	25.2 µM and 42.3 µM	10.1 µM	35.7 µM and > 100 µM	59.8 µM and > 84 µM	29.9 µM and 39.2 µM	28.2 µM and 28.6 µM	14.5 µM	> 100 µM	43.4 µM	37.8 µM and > 100 µM	13.2 µM	27.3 µM and 40.7 µM	–	–	–	–	–	–
O=c1c2ccccc2nc(-c2ccccc2Cl)n1-c1nnc(C(F)(F)F)s1	3.23 µM	17.3 µM	23.3 µM	3.76 µM	> 100 µM	8.51 µM	13.6 µM	10.1 µM	3.37 µM	14.2 µM	7.35 µM	> 100 µM	1.99 µM	4.91 µM	3.38 µM	2.38 µM	3.18 µM	2.7 µM	2.51 µM	3.26 µM
Nc1cc(C(F)(F)F)c(-c2cc(N3CCOCC3)nc(N3CCOCC3)n2)cn1	1.17 µM and 1.28 µM	> 84.6 µM	7.27 µM and 12.4 µM	0.145 µM and 0.273 µM	0.77 µM and 1.31 µM	5.45 µM and 9.35 µM	> 7.41 µM and 3.66 µM	> 10 µM and 9.38 µM	0.807 µM and 0.907 µM	> 33.4 µM	2.53 µM and 4.95 µM	7.06 µM and 4.99 µM	0.797 µM and 0.587 µM	3.05 µM and 2.56 µM	0.646 µM and 0.451 µM	0.615 µM and 0.455 µM	0.547 µM and 0.531 µM	1.21 µM and 1.12 µM	0.325 µM and 0.369 µM	1.17 µM and 1.29 µM
O=C(CCl)Nc1cc(Cl)c(Cl)cc1Cl	–	3.28 µM	7.04 µM	–	5.59 µM	7.74 µM	3.7 µM	2.94 µM	–	3.03 µM	2.88 µM	4.56 µM	–	3.17 µM	–	–	–	–	–	–
Cc1ccc(Cl)cc1NC(=O)c1cc2ccccc2cc1O	0.234 µM	0.707 µM	2.28 µM	1.14 µM	5.06 µM	0.768 µM	14.2 µM	0.924 µM	0.213 µM	1.49 µM	0.692 µM	> 100 µM	0.277 µM	0.824 µM	0.376 µM	0.267 µM	3.37 µM	0.284 µM	0.211 µM	0.418 µM
Cc1ccc(NC(=O)Nc2c(Cl)cccc2Cl)cn1	26.1 µM	> 100 µM	36.1 µM	13.9 µM	> 100 µM	29.7 µM	15.6 µM	> 100 µM	21.3 µM	> 100 µM	> 100 µM	43 µM	5.06 µM	> 100 µM	4.91 µM	4.23 µM	3.93 µM	11.1 µM	8.57 µM	8.51 µM
COc1cccc2nc3ccccc3nc12	–	> 100 µM	> 100 µM	–	> 100 µM	> 100 µM	> 100 µM	> 100 µM	–	> 100 µM	> 100 µM	> 100 µM	–	> 100 µM	–	–	–	–	–	–
CC(=O)N[C@H](C(=O)N[C@@H](CCCNC(=N)N)C(=O)N[C@@H](CCCCN)C(=O)N[C@@H](CCCNC(=N)N)C(=O)NC(C(=O)N[C@@H](CC(C)C)C(=O)N[C@@H](CCCNC(=N)N)C(=O)N[C@@]1(C)CCC/C=C\CCC[C@@](C)(C(=O)N[C@@H](CCCNC(=N)N)C(=O)N[C@@H](CCC(=O)O)C(=O)N[C@@H](CC(C)C)C(=O)N[C@H](C(=O)N[C@@H](CCC(=O)O)C(N)=O)C(C)C)NC(=O)[C@H](CCC(N)=O)NC(=O)[C@H](CC(C)C)NC(=O)[C@H](CC(C)C)NC1=O)[C@@H](C)O)C(C)C (stereo partly drawn) (Ac-VRKR[ξThr(3R)]LR[S5]LLQ[S5]RELVE-NH2; staple (Z) 8-12)	5.26 µM	13.3 µM	6.84 µM	1.05 µM	2.68 µM	19.2 µM	16.4 µM	17.1 µM	8.64 µM	18.8 µM	7.14 µM	14.3 µM	2.01 µM	8.43 µM	1.76 µM	7.23 µM	7.56 µM	8.87 µM	1.76 µM	6.42 µM
Cc1ccc(-c2nc3cc(Cl)c(Cl)cc3nc2C#N)cc1	> 100 µM	> 100 µM	> 100 µM	> 100 µM	> 100 µM	> 100 µM	> 100 µM	> 100 µM	> 100 µM	> 100 µM	> 100 µM	> 100 µM	> 100 µM	> 100 µM	> 100 µM	> 100 µM	> 100 µM	90.3 µM	92.7 µM	> 100 µM
C[C@@H](NC(=O)c1ncnc(N)c1Cl)c1ncc(C(=O)Nc2cc(C(F)(F)F)c(Cl)cn2)s1	10.8 µM	57.9 µM	79.9 µM	24.2 µM	> 83.8 µM	29 µM	46.2 µM	> 68.9 µM	3.32 µM	54 µM	0.624 µM	64.4 µM	8.91 µM	24.1 µM	20.4 µM	3.3 µM	1.07 µM	3.17 µM	0.135 µM	18 µM
CCCCCCCCCC(CCCC(O)CC(=O)O)OC1OC(COC2OC(C)C(OC(C)=O)C(O)C2O)C(O)C(O)C1OC1OC(CO)C(O)C(O)C1OC1OC(C)C(OC(=O)CC(C)C)C(O)C1O (centres undefined)	> 35 µM	> 35 µM	> 35 µM	> 35 µM	> 35 µM	> 35 µM	> 35 µM	> 35 µM	> 35 µM	> 35 µM	> 35 µM	> 35 µM	> 35 µM	> 35 µM	> 35 µM	> 35 µM	> 35 µM	> 35 µM	> 35 µM	> 35 µM
C(=Nc1cnc2ccccc2c1)c1ccc2ccccc2n1	–	> 100 µM	> 100 µM	–	> 100 µM	> 100 µM	> 100 µM	> 100 µM	–	> 100 µM	> 100 µM	> 100 µM	–	> 100 µM	–	–	–	–	–	–
Clc1ccc2ncc(-c3cccc(NC4CNC4)n3)n2c1	7.66 µM	36.3 µM	13.5 µM	20.2 µM	73.8 µM	42.2 µM	> 100 µM	> 100 µM	2.47 µM	13.8 µM	26.4 µM	> 100 µM	16.1 µM	76.1 µM	2.96 µM	4.54 µM	3.21 µM	3.7 µM	8.59 µM	4.71 µM
